Data: US7425548B2, “Materials and methods for immune system stimulation” (Variety Chidren's Hospital, priority 2004, dated 2008)

Columns and labels:
[1] = system: TLR2, TLR4 and TLR6 mRNAs in RAW264.7 cells; assay: TLR mRNA levels, RT-PCR; type: cell-based, mouse; conditions: 0-1000 μg/m RR1, 24 hours
Experimental: The cells (1×10^6) were treated with RR1 (0, 10, 100, 500 and 1000 μg/ml) at 37° C. for 24 hours in a CO2 incubator and mRNA amplified with mouse TLR specific primers.
TLR mRNA and protein levels. TLR2, 4 and 6 mRNA levels were analyzed by RT-PCR using total RNAs extracted from RR1 treated cells. Total RNA was extracted from RR1-treated and untreated RAW 264.7 cells and 0.5 μg/ml RNA was reverse transcribed and amplified using mouse TLR2, 4 and 6 specific PCR primers (R&D SYSTEMS, Minneapolis, Minn.). Mouse GAPDH gene was also amplified as a control. The PCR products were separated on agarose gel.

[2] = system: monocytes isolated from peripheral blood mononuclear cells; assay: NO synthesis in monocytes; type: cell-based
Description: NO levels are also reported to play an important role in the modulation of Th cell differentiation and polarization. Yamasaki et al. (Yamasaki, A. et al. Yonago Acta Medica, 1998, 44:7-15) and Taylor-Robinson et al. (Taylor-Robinson, A. W. et al. Eur. J. Immunol., 1994, 24:980-984) reported an inhibitory role of NO on Th1 cytokines while Bauer et al. (Bauer, H. et al., Immunol, 1997, 90:205-211) reported the same for Th1 as well as Th2 cytokines by NO from activated T cells. […] The enzyme iNOS produced a high output of NO from macrophages upon stimulation. […] The absence of iNOS induction by RR1 supports the conclusion that there is an insignificant increase in the production of NO. […] IFN-α, IFN-γ and TNF-α are known up-regulators of NO synthesis (Shin, J. Y. et al. Immunopharmcol. Immunotoxicol., 2002, 24:469-482; Hirazumi, A. and Furusawa, E. Phytother Res., 1999, 13:380-387).

[3] = system: normal lymphocytes (NK, T and B cells); assay: Activation of lymphocyte subsets, flow cytometry (CD69); type: cell-based, human
Experimental: Normal lymphocytes were treated with RR1 (0-100 μg/ml) for 24 hours at 37° C. in a CO2 incubator. The cells were stained with a panel of cell specific antibodies conjugated with different fluorochromes: CD3-FITC, CD16/56-PE, CD19-ECD, CD69-PC5 or CD8-FITC, CD4-PE, CD3-ECD, CD69-ECD. The stained cells were analyzed in a Coulter Elite flow cytometer in a 4-color assay. ***p<0.001.
Activation of Lymphocytes. Normal lymphocytes (10^6/ml) were treated with 0-100 μg of RR1 for 24 hours in a CO2 incubator maintained at 37° C. in RPMI medium. The cells were then stained with specific fluorochrome-conjugated monoclonal antibodies for 30 minutes at room temperature and analyzed in a Coulter Elite Flow Cytometer by four and five color immunotyping assay protocol of Alamo and Melnick (Alamo, A. L. and S. J. Melnick Cytometry, 2000, 42:363-370) and the percentage of activation of subsets of lymphocytes such as NK, T and B cells were calculated.

RAW264.7 macrophages = assay: Opsonized binding and phagocytosis of FITC-zymosan A bioparticles; type: cell-based, mouse; conditions: 500 μg/ml, 37° C., 1 hour
Experimental: Monocytes were incubated with RR1 at 37° C. for 1 hour followed by FITC-labeled zymosan A bioparticles for another 1 hour at 37° C. The cells were washed and intracellular fluorescence measured in a Coulter Elite Flow cytometer.
Opsonized binding and Phagocytosis. To determine the effect of RR1 and laminarin on opsonized binding and phagocytosis of zymosan A particles, RAW 264.7 cells were treated with RR1 or laminarin (0 and 500 μg/ml) in DMEM at 37° C. for 1 hour. This will ensure the release of opsonins and facilitate opsonic binding. The cells were washed with PBS twice and incubated with zymosan A-FITC bioparticles at a ratio of 25 particles/cell at 37° C. for 1 hour. The cells were suspended in PBS after removing the unbound zymosan particles by extensive washing with the medium, and the intracellular fluorescence analyzed in a Coulter Elite flow cytometer. The fluorescence intensity was expressed as percentage of control.

[4] = system: human leukemic cells (CEM); assay: Cytotoxicity of RR1 treated lymphocytes (functional assay, active caspase-3); type: cell-based; conditions: RR1 0-100 μg/ml, 24 hours, then co-incubation with CEM
Experimental: Normal lymphocytes were treated with RR1 (0-100 μg/ml) for 24 hours in RPMI medium. The cells were washed and co-incubated with PKH26-labeled human leukemic CEM cells for 12 hours for the active NK cells to lyse the tumor cells. The cell mixtures were stained with FITC-labeled and activated caspase-3 monoclonal antibody. The percentage of PKH26+ and Caspase-3+ cells were quantified by analyzing in a Beckman-Coulter Elite flow cytometer (**p=0.01).
Cytotoxicity of RR1 treated lymphocytes. To evaluate the enhanced cytotoxicity of activated lymphocytes, a functional assay was adopted using RR1-activated lymphocytes as effecter cells and human leukemic cells (CEM) as targets (Liu, L. et al. Nat. Med., 2002, 8:185-189; Jerome, K. R. et al. Nat. Med., 2003, 9:4-5). Briefly, normal lymphocytes (10^6/ml) were treated with different concentrations of RR1 in RPMI medium for 24 hours in a CO2 incubator at 37° C. […] The percentage of cells killed by the activated NK cells was determined by fixing the mixture with 1 ml of 2% paraformaldehyde solution for 30 minutes on ice followed by suspending in 0.5% Tween 20 in PBS. The cell mixture was stained with 7.5 μl of anti-active caspase-3-FITC antibody (BD Biosciences, CA) for 30 minutes at room temperature, washed with PBS and analyzed in a Coulter Elite Flow Cytometer.

inhibitory effect on opsonized binding and phagocytosis of zymosan A bioparticles (RAW264.7 macrophages): failed to show any significant effect
inhibitory effect on opsonized binding and phagocytosis of zymosan A bioparticles (RAW264.7 macrophages; listed as RR-1): only little inhibitory effect
Substance: (1,4)-α-D-glucan [RR1]
mRNA levels of TLR2, 4 and 6 [1]: remained similar
NO levels with RR1 treatment [2]: did not induce any higher levels of NO
fold activation of NK cells ([3]; 100 μg/ml RR1): > 3 fold
activation of B cells ([3]; 100 μg/ml RR1, 24 hours): 39%
activation of NK cells ([3]; 100 μg/ml RR1, 24 hours): 331%
activation of T cells ([3]; 100 μg/ml RR1, 24 hours): 102%
killing of tumor cells by RR1-treated normal lymphocytes [4]: dose-dependent enhancement of cytotoxicity
